# Results as given in patent US20150057226A1, “METHOD FOR TREATMENT OF LABOR ARREST” (DILAFOR AB, priority 2012, published 2015).
# Positions of bridges follow the written chain, without caps; N, C: chain ends. Non-standard residues stand in square brackets, D forms with d. Residues, ends and D or L forms follow the SMILES beside them. Orn = NCCC[C@H](N)C(=O)O; Mpa = O=C(O)CCS
# Legend:
# [1] = system: Human uterine smooth muscle cells; assay: Intracellular Ca2+ with Fluo-4, live cell confocal imaging; format: cell-based
# Protocol: Human uterine smooth muscle cells were established in a culture. Intracellular Ca^2+ was measured with the calcium indicator dye Fluo-4 and live cell imaging with confocal microscopy was established for the cells.
# It was further investigated if the main transport mechanism of inositol-3 phosphate (IP3) stimulated Ca^2+ transport of the endoplasmatic reticulum. To study this pathway, 2-Aminoethoxydiphenyl borate (2-APB) was tested on Ca^2+ after 30 min of incubation with a concentration of 100 μM.
# To further characterize the interaction between oxytocin and DF01 the effect of the oxytocin receptor antagonist Atosiban was used and the cells subjected to the DF01 enhanced oxytocin effect on Ca^2+ transport.
# [2] = subcutaneous; species not stated; cited from earlier work
compound,measurement,setting,value
CCOc1ccc(C[C@H]2NC(=O)CCSSC[C@@H](C(=O)N3CCC[C@H]3C(=O)N[C@@H](CCCN)C(=O)NCC(N)=O)NC(=O)[C@H](CC(N)=O)NC(=O)[C@H]([C@@H](C)O)NC(=O)[C@H]([C@@H](C)CC)NC2=O)cc1 [Atosiban] ([Mpa][dY](Et)ITNCP[Orn]G-NH2; disulfide 1-6),effect on oxytocin and oxytocin/DF01 effect on Ca2+ transport,[1]; 10^−6 M,clearly inhibited
heparin,corresponding bioavailability,[2],about 10%
CC[C@H](C)[C@@H]1NC(=O)[C@H](Cc2ccc(O)cc2)NC(=O)[C@@H](N)CSSC[C@@H](C(=O)N2CCC[C@H]2C(=O)N[C@@H](CC(C)C)C(=O)NCC(N)=O)NC(=O)[C@H](CC(N)=O)NC(=O)[C@H](CCC(N)=O)NC1=O [oxytocin],Ca2+-influx to the cytosol,[1]; cells treated with oxytocin,demonstrated
same,oxytocin concentration giving maximum effect on Ca2+-influx,[1]; dose-dependent effect,0.05 IU/ml
"NCCOB(c1ccccc1)c1ccccc1 [2-APB, 2-Aminoethoxydiphenyl borate]",effect on oxytocin and oxytocin/DF01 stimulated Ca2+-transport,"[1]; 100 μM, after 30 min of incubation",decreased strongly
